Values quoted from earlier work as cited in US10702606B2, “Peptide composition” (MENICON CO., LTD., priority 2015, dated 2020).
Read-outs that look alike come from different tables or passages of the source.

NCCN [Ethylenediamine, ethylenediamine]
pKa (25° C., only a pKa of 3.5 or more and less than 7.5 is described): 7.1
pKa (buffering agent, temperature not given): 7.1
